In patent US7915285B2, “Method for treating drug and behavioral addictions” (priority 2005, dated 2011):
Read-outs that look alike come from different tables or passages of the source.

Assays:
[1] = system: naloxone-induced behavioral withdrawal signs; test: Naloxone-induced withdrawal behavior during microdialysis (Example 3); type: in vivo, rat; settings: 7.5 mg/kg b.i.d. with morphine, vs PEG-saline vehicle and morphine, FIG. 4
Procedure: (§1) Dopamine release in the nucleus accumbens is thought to mediate the “reward” associated with drugs of abuse. […] After 3 baseline samples (20 minute inter-sample interval), morphine was administered to all rats. Dialysis samples were collected at 20 minute intervals for 180 minutes. To test behavioral withdrawal and reversal of morphine-induced dopamine, all rats were administered the opioid antagonist naloxone after the 60 minute sample time was completed.

[2] = system: naloxone precipitated withdrawal behaviors; test: Naloxone precipitated withdrawal behaviors (Example 4); type: in vivo, rat; settings: for naloxone precipitated withdrawal behaviors: 60 minute observation period, FIG. 5
Procedure: The withdrawal signs measured were: (1) abnormal posturing (an animal presses his abdomen and lower jaw against the floor of the cage); (2) exploration (an animal circles around the cage, thrusting its head in several directions and examining its surroundings); (3) jumping; (4) cleaning (grooming); (5) rearing (an animal stands on its hindpaws with the forepaws off the ground).
Withdrawal scores were measured by blinded observers in 10 minute blocks for 60 minutes immediately after naloxone precipitated withdrawal was initiated. The observations were pooled from 1-10 minutes, 11-20 minutes, 21-30 minutes, 31-40 minutes, 41-50 minutes, 51-60 minutes for each individual rat after naloxone administration, giving six time points. The average score (for each time point) for all animals within an experimental group was reported as the “total withdrawal score” in FIGS. 2A-2D.

[3] = type: in vivo, rat; settings: normalized to weight at start of morphine
[4] = Previous range-finding tolerability studies, intraperitoneal; type: in vivo; settings: twice a day (bid) for multiple days
[5] = system: dopamine release in the nucleus accumbens; test: In vivo microdialysis of nucleus accumbens dopamine (Example 3); set-up: species or system rat
Procedure: as §1

[6] = administered systemically; cited from earlier work
[7] = Spontaneous opioid withdrawal induced weight loss (Example 5); type: in vivo, rat; settings: FIG. 9
Procedure: Pathogen-free adult male Sprague-Dawley rats were used in all experiments. Rats (350-375 g at the time of arrival; Harlan Labs, Madison, Wis.) were housed in temperature (23±3° C.) and light (12:12 light:dark; lights on at 0700 hours) controlled rooms with standard rodent chow and water available ad libitum. All procedures were approved by the Institutional Animal Care and Use Committee at the University of Colorado at Boulder. Upon arrival male Sprague Dawley rats (300-400g) were housed individually and allowed to acclimatize to the animal colony telemetry room for one week. 5×90 minute sessions of handling by investigators were performed during the following week. Rats were anesthetized with isoflurane, and emitters for measuring core body temperature ([…], Sun River, Oreg.) were implanted in the peritoneal cavity. Gross motor movement was assessed by telemetry using the same emitters used for recording core body temperature. The emitter had to move for activity to be counted; thus, stationary movements such as grooming were not counted. Activity counts and core body temperature were measured every minute and movement averaged over 120 minutes was calculated (thereby smoothing the data). […] Body weights were recorded prior to each dosing session to allow for accurate dose calculations and to track the opioid induced weight loss (also occurred on days when no dosing was conducted).

[8] = system: nucleotide phosphodiesterase (PDE); settings: non-selective PDE inhibitor; cited from earlier work
[9] = Pharmacokinetics and tissue distribution of ibudilast in rat; type: in vivo
Procedure: Ibudilast pharmacokinetics and distribution into plasma, muscle, brain, and spinal cord were assessed as follows.
Drug stability and concentration were validated by HPLC/MS/MS.
Pathogen-free adult male Sprague-Dawley rats (280-350 g; Harlan Labs) were used in all experiments. Rats were housed in temperature (23+/−3° C.) and light (12:12 light: dark; lights on at 0700 hr) controlled rooms with standard rodent chow and water available ad libitum. Behavioral testing was performed during the light cycle.
Calibration standards in plasma were prepared by diluting each 0.5 mg/ml stock 1 in 100 into rat plasma to 5000 ng/ml (5 μl+495 μl), and then diluted further to 2.29 ng/ml by 3-fold serial dilution with plasma. Standards were used as low, mid and high QC samples, respectively.
Calibration standards, QC and plasma study samples were prepared for HPLC injection by precipitating 25 μl of plasma with three volumes (75 μl) of ice cold acetonitrile containing 50 ng/ml diphenhydramine and 100 ng/ml dextromethorphan as the internal standards. Tissue study samples were prepared for HPLC injection by adding 1 μl of water per mg of tissue plus three volumes (relative to water) of ice cold acetonitrile containing 50 ng/ml diphenhydramine and 100 ng/ml dextromethorphan as the internal standards, then homogenizing with an electric homogenizer.

**Q.** Which “naloxone-induced behavioral withdrawal signs” value [1] does the source give for `CC(C)C(=O)c1c(C(C)C)nn2ccccc12` [ibudilast, 2-methyl-1-(2-(1-methylethyl)pyrazolo(1,5-a)pyridin-3-yl)1-propanone] here?
**A.** Its value is “suppressed naloxone-induced behavioral withdrawal signs”.

**Q.** What about the “naloxone precipitated withdrawal behaviors” value ([2]; 2.5 mg/kg) of the same molecule?
**A.** Its value is “dramatic reduction of naloxone precipitated withdrawal behaviors”.

**Q.** What about the “naloxone precipitated withdrawal behaviors” value ([2]; 7.5 mg/kg) of the same molecule?
**A.** Its value is “dramatic reduction of naloxone precipitated withdrawal behaviors”.

**Q.** What about the individual withdrawal behaviors ([2]; on an individual behavior basis) of the same molecule?
**A.** Its individual withdrawal behaviors is “reductions in all behaviors except for rearing, exploration and wet dog shakes”.

**Q.** And the “morphine induced weight loss on day 7” value ([3]; 2.5 mg/kg ibudilast)?
**A.** Its value is 16.6 ± 5.7 g.

**Q.** And the “morphine induced weight loss on day 7” value ([3]; 7.5 mg/kg ibudilast)?
**A.** Its value is 13.3 ± 7.1 g.

**Q.** What about the well-tolerated dose level [4] of the same molecule?
**A.** The well-tolerated dose level was “up to 15 mg/kg”.

**Q.** And the “dopamine release into the nucleus accumbens in response to morphine” value ([5]; 7.5 mg/kg b.i.d. co-administered with morphine across 5 days, FIG. 3)?
**A.** Its value is “suppressed release of dopamine into the nucleus accumbens in response to morphine”.

**Q.** And the “basal levels of dopamine” value ([5]; 7.5 mg/kg b.i.d., baseline samples)?
**A.** Its value is “did not decrease basal levels of dopamine”.

**Q.** What about the blood-brain barrier passage [6] of the same molecule?
**A.** The blood-brain barrier passage was “crosses the blood-brain barrier when administered systemically”.

**Q.** And the “spontaneous opioid withdrawal induced weight loss” value ([7]; higher dose (7.5 mg/kg twice daily))?
**A.** The value was “substantially attenuated weight loss”.

**Q.** And the “spontaneous opioid withdrawal induced weight loss” value ([7]; lower dose (2.5 mg/kg twice daily))?
**A.** The value was “only a trend towards improved weight change”.

**Q.** What about the PDE inhibition profile [8] of the same molecule?
**A.** The PDE inhibition profile was “most active against PDE-3, PDE-4, PDE-10, and PDE-11”.

**Q.** What about the plasma concentration profile ([9]; i.p. 5 mg/kg) of the same molecule?
**A.** Its plasma concentration profile is “declined from Cmax in a biphasic manner”.

**Q.** And the tissue distribution ([9]; i.p. 5 mg/kg, muscle, brain, spinal cord)?
**A.** Its tissue distribution is “well distributed to peripheral (e.g. muscle) and central (e.g. brain and spinal cord) tissues”.

**Q.** And the Cmax ([9]; male, Sprague-Dawley, plasma and CNS tissues (brain, spinal cord), ip, i.p. ~5 mg/kg, in 15% ethanol/saline, read-out: maximal concentration (Cmax) in plasma and CNS tissues)?
**A.** The Cmax was ~1000 ng/mL.

**Q.** And the half-life ([9]; male, Sprague-Dawley, plasma, muscle, brain, spinal cord (all tissue compartments), ip, i.p. 5 mg/kg, all tissue compartments, read-out: elimination half-life)?
**A.** The half-life was 1.67 to 2.32 h.
